Legend:
[1] = system: ducksalad; test: Test B flooded paddy test; type: in vivo, Heteranthera limosa; details: 250 g ai/ha, Flood, 13 days, 0 to 100 scale (0 no effect, 100 complete control)
In short: (§1)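 Percent weed or crop control, judged by eye on a 0–100 scale 13 days post-treatment, reflects compound added to a 3 cm flood maintained over 2-leaf plants in the greenhouse. Missing entries are marked with a dash.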

[2] = system: corn; test: Test A postemergence; type: in vivo, Zea mays; details: postemergence, 10 days, 0 to 100 scale (0 no effect, 100 complete control)
In short: (§2)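 Seeds in loam–sand blend received a directed preemergence soil spray of compound in non-phytotoxic solvent with surfactant; postemergence plants (2–10 cm, one- to two-leaf stage) were sprayed with the same formulation. After 10 days in greenhouse, injury was rated visually versus untreated controls, 0 (no effect) to 100 (complete control).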

[3] = system: barnyardgrass; test: Test B flooded paddy test; type: in vivo, Echinochloa crus-galli; details: 250 g ai/ha, Flood, 13 days, 0 to 100 scale (0 no effect, 100 complete control)
In short: as §1

[4] = system: goosegrass; test: Test A preemergence; type: in vivo, Eleusine indica; details: 0 to 100 scale
In short: as §2

[5] = system: soybean; test: Test A preemergence; type: in vivo, Glycine max; details: 0 to 100 scale
In short: as §2

[6] = system: foxtail, giant; test: Test A preemergence; type: in vivo, Setaria faberi; details: 0 to 100 scale
In short: as §2

[7] = system: blackgrass; test: Test A postemergence; type: in vivo, Alopecurus myosuroides; details: postemergence, 10 days, 0 to 100 scale (0 no effect, 100 complete control)
In short: as §2

[8] = system: pigweed, palmer; test: Test A postemergence; type: in vivo, Amaranthus palmeri; details: postemergence, 10 days, 0 to 100 scale (0 no effect, 100 complete control)
In short: as §2

[9] = system: ryegrass, Italian; test: Test A preemergence; type: in vivo, Lolium multiflorum; details: 0 to 100 scale
In short: as §2

[10] = system: rice; test: Test B flooded paddy test; type: in vivo, Oryza sativa; details: 250 g ai/ha, Flood, 13 days, 0 to 100 scale (0 no effect, 100 complete control)
In short: as §1

[11] = system: soybean; test: Test A postemergence; type: in vivo, Glycine max; details: postemergence, 10 days, 0 to 100 scale (0 no effect, 100 complete control)
In short: as §2

[12] = system: horseweed; test: Test A postemergence; type: in vivo, Erigeron canadensis; details: postemergence, 10 days, 0 to 100 scale (0 no effect, 100 complete control)
In short: as §2

[13] = system: goosegrass; test: Test A postemergence; type: in vivo, Eleusine indica; details: postemergence, 10 days, 0 to 100 scale (0 no effect, 100 complete control)
In short: as §2

[14] = system: ragweed; test: Test A preemergence; type: in vivo, Ambrosia artemisiifolia; details: 0 to 100 scale
In short: as §2

[15] = system: sedge, umbrella; test: Test B flooded paddy test; type: in vivo, Cyperus difformis; details: 250 g ai/ha, Flood, 13 days, 0 to 100 scale (0 no effect, 100 complete control)
In short: as §1

[16] = system: wheat; test: Test A preemergence; type: in vivo, Triticum aestivum; details: 0 to 100 scale
In short: as §2

[17] = system: kochia; test: Test A preemergence; type: in vivo, Bassia scoparia; details: 0 to 100 scale
In short: as §2

[18] = system: ragweed; test: Test A postemergence; type: in vivo, Ambrosia artemisiifolia; details: postemergence, 10 days, 0 to 100 scale (0 no effect, 100 complete control)
In short: as §2

[19] = system: corn; test: Test A preemergence; type: in vivo, Zea mays; details: 0 to 100 scale
In short: as §2

[20] = system: ryegrass, Italian; test: Test A postemergence; type: in vivo, Lolium multiflorum; details: postemergence, 10 days, 0 to 100 scale (0 no effect, 100 complete control)
In short: as §2

[21] = system: oat, wild; test: Test A postemergence; type: in vivo, Avena fatua; details: postemergence, 10 days, 0 to 100 scale (0 no effect, 100 complete control)
In short: as §2

[22] = system: wheat; test: Test A postemergence; type: in vivo, Triticum aestivum; details: postemergence, 10 days, 0 to 100 scale (0 no effect, 100 complete control)
In short: as §2

[23] = system: oat, wild; test: Test A preemergence; type: in vivo, Avena fatua; details: 0 to 100 scale
In short: as §2

[24] = system: kochia; test: Test A postemergence; type: in vivo, Bassia scoparia; details: postemergence, 10 days, 0 to 100 scale (0 no effect, 100 complete control)
In short: as §2

[25] = system: foxtail, giant; test: Test A postemergence; type: in vivo, Setaria faberi; details: postemergence, 10 days, 0 to 100 scale (0 no effect, 100 complete control)
In short: as §2

[26] = system: blackgrass; test: Test A preemergence; type: in vivo, Alopecurus myosuroides; details: 0 to 100 scale
In short: as §2

[27] = system: pigweed, palmer; test: Test A preemergence; type: in vivo, Amaranthus palmeri; details: 0 to 100 scale
In short: as §2

[28] = 125 g ai/ha, visual injury after 10 days, 0 is no effect, 100 is complete control

In the case of `Cc1ccc(-n2cnc(Br)n2)cc1C(=O)N1C[C@H](C)Oc2c(Cl)cccc21` [Compound 62], the “Plant response rating, Ducksalad” value [1] is reported as 0, the “Corn plant response rating” value ([2]; 31 g ai/ha) is reported as 10 and the “Plant response rating, Corn” value ([2]; 125 g ai/ha, visual injury) is reported as 10. For the same compound, the “Plant response rating, Barnyardgrass” value [3] was 0, the “Plant response rating, Goosegrass” value ([4]; 31 g ai/ha) was 70 and the “Plant response rating, Goosegrass” value [4, 28] was 100. For the same compound, the “Plant response rating, Soybean” value ([5]; 31 g ai/ha) was 0, the “Plant response rating, Soybean” value [5, 28] was 0 and the “Plant response rating, Foxtail, Giant” value ([6]; 31 g ai/ha) was 20. The “Plant response rating, Foxtail, Giant” value [6, 28] was 90, the “Blackgrass plant response rating” value ([7]; 31 g ai/ha) was 40 and the “Plant response rating, Blackgrass” value ([7]; 125 g ai/ha, visual injury) was 50. The “Pigweed, Palmer plant response rating” value ([8]; 31 g ai/ha) was 40, the “Plant response rating, Pigweed, Palmer” value ([8]; 125 g ai/ha, visual injury) was 50 and the “Plant response rating, Ryegrass, Italian” value ([9]; 31 g ai/ha) was 0. The “Plant response rating, Ryegrass, Italian” value [9, 28] was 70, the “Plant response rating, Rice” value [10] was 0 and the “Soybean plant response rating” value ([11]; 31 g ai/ha) was 100. For the same compound, the “Plant response rating, Soybean” value ([11]; 125 g ai/ha, visual injury) was 100, the “Horseweed plant response rating” value ([12]; 31 g ai/ha) was 0 and the “Plant response rating, Horseweed” value ([12]; 125 g ai/ha, visual injury) was 0. For the same compound, the “Goosegrass plant response rating” value ([13]; 31 g ai/ha) was 10, the “Plant response rating, Goosegrass” value ([13]; 125 g ai/ha, visual injury) was 20 and the “Plant response rating, Ragweed” value ([14]; 31 g ai/ha) was 0. For the same compound, the “Plant response rating, Ragweed” value [14, 28] was 20, the “Plant response rating, Sedge, Umbrella” value [15] was 0 and the “Plant response rating, Wheat” value ([16]; 31 g ai/ha) was 0. For the same compound, the “Plant response rating, Wheat” value [16, 28] was 0, the “Plant response rating, Kochia” value ([17]; 31 g ai/ha) was 10 and the “Plant response rating, Kochia” value [17, 28] was 80. The “Ragweed plant response rating” value ([18]; 31 g ai/ha) was 10, the “Plant response rating, Ragweed” value ([18]; 125 g ai/ha, visual injury) was 20 and the “Plant response rating, Corn” value ([19]; 31 g ai/ha) was 0. For the same compound, the “Plant response rating, Corn” value [19, 28] was 0, the “Ryegrass, Italian plant response rating” value ([20]; 31 g ai/ha) was 0 and the “Plant response rating, Ryegrass, Italian” value ([20]; 125 g ai/ha, visual injury) was 40. The “Oat, Wild plant response rating” value ([21]; 31 g ai/ha) was 0, the “Plant response rating, Oat, Wild” value ([21]; 125 g ai/ha, visual injury) was 20 and the “Wheat plant response rating” value ([22]; 31 g ai/ha) was 10. The “Plant response rating, Wheat” value ([22]; 125 g ai/ha, visual injury) was 10, the “Plant response rating, Oat, Wild” value ([23]; 31 g ai/ha) was 0 and the “Plant response rating, Oat, Wild” value [23, 28] was 0. The “Kochia plant response rating” value ([24]; 31 g ai/ha) was 80, the “Plant response rating, Kochia” value ([24]; 125 g ai/ha, visual injury) was 90 and the “Foxtail, Giant plant response rating” value ([25]; 31 g ai/ha) was 20. The “Plant response rating, Foxtail, Giant” value ([25]; 125 g ai/ha, visual injury) was 90, the “Plant response rating, Blackgrass” value ([26]; 31 g ai/ha) was 0 and the “Plant response rating, Blackgrass” value [26, 28] was 40. For the same compound, the “Plant response rating, Pigweed, Palmer” value ([27]; 31 g ai/ha) was 70 and the “Plant response rating, Pigweed, Palmer” value [27, 28] was 90.

From patent US20260262643A1, “HERBICIDAL BENZOXAZINES” (FMC CORPORATION, priority 2022, published 2026)
